This is an account of results in US7709498B2, “Quinoline derivatives as antibacterial agents” (Janssen Pharmaceutica N.V., priority 2005, dated 2010).

≈ marks a conversion by molar mass, not a printed value.

Common to all, as to type: cell-based
In assay [1] the test system is Streptococcus mutans (ATCC33402). In words: Microtitre plate assay, IC90 determination, SMU 33402. As to conditions: 90% inhibitory concentration for bacterial growth, 37° C., resazurin fluorescence; for IC90 (μg/ml) SMU 33402: 24 hours; for IC90: Streptococcus mutans, ATCC33402, 24 h, read-out: IC90 (μg/ml) SMU 33402. As for the experimental part: (§1) The bacteria used in this study were grown overnight in flasks containing 100 ml Mueller-Hinton Broth (Becton Dickinson—cat. no. 275730) in sterile de-ionized water, with shaking, at 37° C. Stocks (0.5 ml/tube) were stored at −70° C. until use. Bacteria titrations were performed in microtiter plates to detect the TCID50, in which the TCID50 represents the dilution that gives rise to bacterial growth in 50% of inoculated cultures.
(§2) In general, an inoculum level of approximately 100 TCID50 was used for susceptibility testing.
(§3) Flat-bottom, sterile 96-well plastic microtiter plates were filled with 180 μl of sterile deionized water, supplemented with 0.25% BSA. Subsequently, stock solutions (7.8× final test concentration) of compounds were added in 45 μl volumes in column 2. Serial five-fold dilutions (45 μl in 180 μl) were made directly in the microtiter plates from column 2 to reach column 11. Untreated control samples with (column 1) and without (column 12) inoculum were included in each microtiter plate. Depending on the bacteria type, approximately 10 to 60 CFU per well of bacteria inoculum (100 TCID50), in a volume of 100 μl in 2.8× Mueller-Hinton broth medium, was added to the rows A to H, except column 12. The same volume of broth medium without inoculum was added to column 12 in row A to H. The cultures were incubated at 37° C. for 24 hours under a normal atmosphere (incubator with open air valve and continuous ventilation). At the end of incubation, one day after inoculation, the bacterial growth was quantitated fluorometrically. Therefore resazurin (0.6 mg/ml) was added in a volume of 20 μl to all wells 3 hours after inoculation, and the plates were re-incubated overnight. A change in colour from blue to pink indicated the growth of bacteria. The fluorescence was read in a computer-controlled fluorometer (Cytofluor Biosearch) at an excitation wavelength of 530 nm and an emission wavelength of 590 nm. The % growth inhibition achieved by the compounds was calculated according to standard methods. The IC90 (expressed in μg/ml) was defined as the 90% inhibitory concentration for bacterial growth.
(§4) BSU 3639 means Bacillus subtilis (ATCC43639); ECO 25922 means Escherichia coli (ATCC25922); EFA 14506 means Enterococcus faecalis (ATCC14506); EFA 29212 means Enterococcus faecalis (ATCC29212); LMO 49594 means Listeria monocytogenes (ATCC49594); PAE 27853 means Pseudomonas aeruginosa (ATCC27853); SMU 33402 means Streptococcus mutans (ATCC33402); SPN 6305 means Streptococcus pneumoniae (ATCC6305); SPY 8668 means Streptococcus pyogens (ATCC8668); STA 43300 means Staphylococcus aureus (ATCC43300); STA 25923 means Staphylococcus aureus (ATCC25923); STA 29213 means Staphylococcus aureus (ATCC29213); STA RMETH means methicilline resistant Staphylococcus aureus (MRSA) (a clinical isolate from the University of Antwerp). ATCC means American type tissue culture.
(In general: Alamar Blue is a resazurin reagent that responds to reducing activity.)

Assay [2] relates to Streptococcus pneumoniae (ATCC6305). Put plainly: Microtitre plate assay, IC90 determination, SPN 6305. The note with it: 90% inhibitory concentration for bacterial growth, 37° C., resazurin fluorescence; for IC90 (μg/ml) SPN 6305: 24 hours; for IC90: Streptococcus pneumoniae, ATCC6305, 24 h, read-out: IC90 (μg/ml) SPN 6305. Here is the method: as §1, §2, §3, §4
Assay [3] concerns Streptococcus pyogens (ATCC8668). In words: Microtitre plate assay, IC90 determination, SPY 8668. As to conditions: 90% inhibitory concentration for bacterial growth, 37° C., resazurin fluorescence; for IC90 (μg/ml) SPY 8668: 24 hours. Here is the method: as §1, §2, §3, §4
Assay [4] concerns Listeria monocytogenes (ATCC49594). Put plainly: Microtitre plate assay, IC90 determination, LMO 49594. The note with it: 90% inhibitory concentration for bacterial growth, 37° C., resazurin fluorescence; for IC90: Listeria monocytogenes, ATCC49594, 24 h, read-out: IC90 (μg/ml) LMO 49594; for IC90 (μg/ml) LMO 49594: 24 hours. Here is the method: as §1, §2, §3, §4

Regarding `COc1nc2ccc(Br)cc2cc1C(c1ccccc1)C(O)(CCN(C)C)c1ccccc1` (single isomer, unassigned) [F], the “IC90 (μg/ml) SMU 33402” value in assay [1] came out at 22.6 µg/mL (≈ 44.7 µM). Besides, the “IC90 (μg/ml) SPN 6305” value in assay [2] was found to be 25.3 µg/mL (≈ 50.1 µM). For the same compound, the “IC90 (μg/ml) SPY 8668” value in assay [3] came out at 22.6 µg/mL (≈ 44.7 µM).

In the case of `COc1nc2ccc(Br)cc2cc1C(c1ccccc1)C(O)(CC[N+](C)(C)[O-])c1ccccc1` (racemic) [Compound 58], the “IC90 (μg/ml) SMU 33402” value in assay [1] was 5.9 µg/mL (≈ 11.3 µM). In addition, the “IC90 (μg/ml) SPY 8668” value in assay [3] worked out at 8.3 µg/mL (≈ 15.9 µM).

In the case of `COc1nc2ccc(Br)cc2cc1C(c1ccccc1)C(O)(CCN1CCSCC1)c1ccccc1` (racemic) [Compound 55], the “IC90 (μg/ml) SPN 6305” value in assay [2] amounted to 0.6 µg/mL (≈ 1.06 µM).

As for `COc1nc2ccc(Br)cc2cc1C(c1ccccc1)C(O)(CCN(C)C)c1ccc2c(c1)OCCO2` (centres unmarked) [Compound 78], the IC90 in assay [1] came to 11.2 µg/mL (≈ 19.9 µM); in assay [3] (Streptococcus, ATCC8668, 24 h, read-out: IC90 (μg/ml) SPY 8668), 11.2 µg/mL (≈ 19.9 µM). For the same compound, the “IC90 (μg/ml) SPN 6305” value in assay [2] was 11.2 µg/mL (≈ 19.9 µM).

On to `COc1nc2ccc(Br)cc2cc1C(c1ccccc1)C(O)(CCN(C)C)c1ccc2c3c(cccc13)CC2` (centres unmarked) [Compound I], for which the IC90 in assay [2] came to 11.6 µg/mL (≈ 19.9 µM).

Consider `CCOc1nc2ccc(Br)cc2cc1C(c1ccccc1)C(O)(CCN(C)C)c1ccccc1` (centres unmarked) [Compound 5], for which the “IC90 (μg/ml) SMU 33402” value in assay [1] came out at 10.4 µg/mL (≈ 20 µM).

In the case of `COc1nc2ccc(-c3ccco3)cc2cc1C(c1ccccc1)C(O)(CCN(C)C)c1cccc2ccccc12` (centres unmarked) [Compound H], the IC90 in assay [4] and in assay [2] was 13.6 µg/mL (≈ 25.1 µM) in each case.

Consider `COc1nc2cc(C)c(C)cc2cc1C(c1ccccc1)C(O)(CCN(C)C)c1cccc2ccccc12` (racemic) [Compound 229], for which the “IC90 (μg/ml) SMU 33402” value in assay [1] stood at 22.5 µg/mL (≈ 44.6 µM). The “IC90 (μg/ml) SPN 6305” value in assay [2] worked out at 5.0 µg/mL (≈ 9.91 µM).

For the compound `COc1nc2ccc(Br)cc2cc1C(c1ccccc1)C(O)(CCN(C)C)c1cc(F)cc(F)c1` (centres unmarked) [Compound 116], in assay [4], the IC90 was 10.8 µg/mL (≈ 19.9 µM).

Regarding `COc1nc2ccc(Br)cc2cc1C(c1ccccc1)C(O)(CCN(C)C)c1cccc(F)c1F` (centres unmarked) [Compound 113], the IC90 in assay [4] turned out to be 10.8 µg/mL (≈ 19.9 µM); in assay [2], 13.6 µg/mL (≈ 25.1 µM).

With `COc1nc2ccc(Br)cc2cc1C(c1ccccc1)C(O)(CCN(C)C)c1ccc(F)c(F)c1` (centres unmarked) [Compound 196], the IC90 in assay [1] worked out at 10.8 µg/mL (≈ 19.9 µM).

For `COc1nc2ccc(Br)cc2cc1C(c1ccccc1)C(O)(CCN(C)C)c1cccc(F)c1` (centres unmarked) [Compound 108], the “IC90 (μg/ml) SPN 6305” value in assay [2] was found to be 13.1 µg/mL (≈ 25 µM).

In the case of `COc1nc2ccc(Br)cc2cc1C(c1ccccc1)C(O)(CCN1CCCCC1)c1ccc2cc(Br)ccc2c1` (centres unmarked) [Compound 166], the IC90 in assay [2] is 16.9 µg/mL (≈ 25.1 µM).

As to `COc1nc2ccc(Br)cc2cc1C(c1ccccc1)C(O)(CCN(C)C)c1cccc(F)c1` (centres unmarked) [Compound 38], the “IC90 (μg/ml) LMO 49594” value in assay [4] is 10.4 µg/mL (≈ 19.9 µM).

For the compound `CCN(CC)CCC(O)(c1ccccc1)C(c1ccccc1)c1cc2cc(Br)ccc2nc1OC` (centres unmarked) [Compound 19], the “IC90 (μg/ml) SPN 6305” value in assay [2] was 13.4 µg/mL (≈ 25.1 µM).

For `COCCOc1nc2ccc(Br)cc2cc1C(c1ccccc1)C(O)(CCN(C)C)c1cccc(F)c1` (racemic) [Compound 165], in assay [1], the “IC90 (μg/ml) SMU 33402” value was 14.3 µg/mL (≈ 25.2 µM). In assay [2], the “IC90 (μg/ml) SPN 6305” value came to 14.3 µg/mL (≈ 25.2 µM). Further, in assay [3], the “IC90 (μg/ml) SPY 8668” value worked out at 11.3 µg/mL (≈ 19.9 µM).

In the case of `COc1nc2ccc(Br)cc2cc1C(c1ccccc1)C(O)(CCN(C)C)c1ccc2c(Br)cccc2c1` (centres unmarked) [Compound 130], the IC90 in assay [1] came to 10.1 µg/mL (≈ 15.9 µM).

As for `COc1nc2ccc(Br)cc2cc1C(c1ccccc1)C(O)(CCN(C)C)c1cc(F)ccc1F` (centres unmarked) [Compound 67], the figures for the IC90 in assay [4] and in assay [2] were 10.8 µg/mL (≈ 19.9 µM) and 13.6 µg/mL (≈ 25.1 µM), respectively.

For `COc1nc2ccc(Br)cc2cc1C(c1ccccc1)C(O)(CCN(C)C)c1ccsc1` (centres unmarked) [Compound 24], the IC90 in assay [2] was 10.2 µg/mL (≈ 19.9 µM).

As for `COc1ccc2cc(C(O)(CCN(C)C)C(c3ccccc3)c3cc4cc(Br)ccc4nc3OC)ccc2c1` (centres unmarked) [Compound 163], the IC90 in assay [2] was 14.7 µg/mL (≈ 25.1 µM).

In the case of `COc1nc2cc(C)c(Br)cc2cc1C(c1ccccc1)C(O)(CCN(C)C)c1cccc(F)c1` (racemic) [Compound 215], in assay [4], the “IC90 (μg/ml) LMO 49594” value worked out at 10.7 µg/mL (≈ 19.9 µM).
